Measured values published in ChEMBL document CHEMBL1201862, “PubChem BioAssay data set” (2004).
Activity calls are given as the source filed them.

Tests used:
Beta-galactosidase = Beta-galactosidase (Escherichia coli, UniProt Q8VNN2); assay: PubChem AID 485352; assay type: functional
[1] = molecular target: T1, Type-1 angiotensin II receptor (Homo sapiens, UniProt P30556); assay: AT1 receptor antagonists, dose response, selectivity assay for APJ receptor antagonist project, cell-based, uHTS hits (AID 463214); assay type: functional;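 note: antagonist potency against angiotensin II stimulated AT1 response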
T1 sequence (P30556 whole entry): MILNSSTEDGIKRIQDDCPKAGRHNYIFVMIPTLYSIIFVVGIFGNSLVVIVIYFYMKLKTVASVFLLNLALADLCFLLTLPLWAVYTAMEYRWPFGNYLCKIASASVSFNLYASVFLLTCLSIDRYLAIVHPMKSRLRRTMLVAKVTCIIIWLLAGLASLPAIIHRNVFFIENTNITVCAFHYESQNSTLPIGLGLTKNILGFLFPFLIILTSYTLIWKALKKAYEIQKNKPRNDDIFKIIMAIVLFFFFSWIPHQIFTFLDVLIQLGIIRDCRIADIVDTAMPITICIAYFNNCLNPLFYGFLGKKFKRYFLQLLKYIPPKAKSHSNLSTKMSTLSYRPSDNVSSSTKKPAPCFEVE

[2] = insulin promoter down-regulators in MIN6 cells, imaging, high-content screening, mouse beta cells (AID 1628); assay type: functional
[3] = cytotoxicity in MIN6 insulinoma cells, dose response, cytotoxicity control, cell-based, mouse insulinoma (AID 2122); assay type: functional;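 note: confirmatory high-throughput counterscreen run to flag cytotoxic compounds; mouse MIN-6 beta cells carrying an insulin promoter eGFP reporter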
[4] = molecular target: T2, Short transient receptor potential channel 4 (Mus musculus, UniProt Q9QUQ5); assay: mouse TRPC4 channel activators, dose response, cell-based, HEK293 TRPC4/mu-opioid, Fluo-4 calcium (AID 434937); assay type: functional
T2 sequence (Q9QUQ5 whole entry): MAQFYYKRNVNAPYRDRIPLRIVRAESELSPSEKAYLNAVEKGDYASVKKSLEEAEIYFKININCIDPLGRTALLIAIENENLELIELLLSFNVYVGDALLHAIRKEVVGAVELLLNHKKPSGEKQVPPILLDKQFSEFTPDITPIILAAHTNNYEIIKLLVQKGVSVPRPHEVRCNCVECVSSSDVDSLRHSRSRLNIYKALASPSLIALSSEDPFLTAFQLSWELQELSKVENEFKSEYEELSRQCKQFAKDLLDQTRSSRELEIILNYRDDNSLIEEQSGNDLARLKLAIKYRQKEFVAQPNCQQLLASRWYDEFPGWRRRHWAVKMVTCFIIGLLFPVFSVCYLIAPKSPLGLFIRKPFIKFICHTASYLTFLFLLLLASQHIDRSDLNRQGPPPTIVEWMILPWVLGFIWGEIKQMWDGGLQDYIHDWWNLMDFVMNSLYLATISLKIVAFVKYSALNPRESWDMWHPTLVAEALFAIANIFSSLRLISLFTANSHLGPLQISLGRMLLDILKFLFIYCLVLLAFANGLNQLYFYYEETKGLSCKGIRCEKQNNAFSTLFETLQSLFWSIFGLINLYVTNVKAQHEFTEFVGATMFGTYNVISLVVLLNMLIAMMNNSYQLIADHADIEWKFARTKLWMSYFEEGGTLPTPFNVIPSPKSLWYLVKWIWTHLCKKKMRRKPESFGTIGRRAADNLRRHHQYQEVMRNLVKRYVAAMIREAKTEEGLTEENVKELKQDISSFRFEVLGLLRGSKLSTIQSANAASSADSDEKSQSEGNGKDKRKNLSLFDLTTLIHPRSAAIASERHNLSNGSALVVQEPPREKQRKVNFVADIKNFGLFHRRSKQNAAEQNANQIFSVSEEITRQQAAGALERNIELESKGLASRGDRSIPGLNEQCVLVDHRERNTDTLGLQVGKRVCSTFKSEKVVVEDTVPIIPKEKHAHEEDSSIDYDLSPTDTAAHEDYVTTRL

Escherichia coli = assay: microbe, parasite or virus in culture
[5] = test system: Streptococcus sp. 'group A'; assay: growth inhibition of control SK(-) GAS strain, dose response, counter-screen for streptokinase expression inhibitor project, luminescence, kanamycin, BacTiterGlo, confirmation (AID 1900); assay type: functional, organism-based
Streptokinase A = molecular target: T3, Streptokinase A (Streptococcus pyogenes serotype M1, UniProt P10520); assay: S. pyogenes streptokinase expression inhibitors, potency, dose response, plasminogen activation absorbance, OD405 (AID 1914); assay type: functional, Streptococcus pyogenes M1 GAS;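 note: secreted streptokinase activity via plasminogen activation per viability signal from cell pellet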
T3 sequence (P10520 whole entry): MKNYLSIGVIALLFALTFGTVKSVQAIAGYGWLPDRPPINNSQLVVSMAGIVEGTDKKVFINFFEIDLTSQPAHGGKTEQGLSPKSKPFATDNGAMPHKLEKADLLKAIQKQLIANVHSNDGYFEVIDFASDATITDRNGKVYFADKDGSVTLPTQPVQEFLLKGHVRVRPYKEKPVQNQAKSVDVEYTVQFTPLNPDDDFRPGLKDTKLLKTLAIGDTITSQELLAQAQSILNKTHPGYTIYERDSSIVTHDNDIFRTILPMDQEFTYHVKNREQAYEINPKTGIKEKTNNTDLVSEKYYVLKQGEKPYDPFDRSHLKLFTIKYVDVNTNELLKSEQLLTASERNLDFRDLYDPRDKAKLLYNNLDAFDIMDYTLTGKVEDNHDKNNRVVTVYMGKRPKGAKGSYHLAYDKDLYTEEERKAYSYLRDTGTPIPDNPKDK

Streptococcus = assay: Group A Streptococcus viability loss, dose response, counter-screen for streptokinase expression inhibitor project, luminescence, BacTiterGlo (AID 1915); assay type: functional, organism-based;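 note: potency for reduction of bacterial viability or growth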
[6] = Luminescence Cell-Based Dose Retest to Confirm Inhibitors of Cancer Stem Cells. [Related pubchem assays (depositor defined):AID2717, AID2721]; assay type: functional; conditions: Homo sapiens
[7] = molecular target: G-protein coupled receptor 55 (Homo sapiens, UniProt Q9Y2T6); assay: GPR55 antagonists blocking LPI-driven arrestin recruitment, primary screen, imaging, U2OS, beta-arrestin-GFP, LPI agonist (AID 2013); assay type: functional;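 note: antagonist potency measured as reduced agonist-driven arrestin aggregation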
Vero [8] = assay: cells; assay type: functional, cell-based; conditions: Chlorocebus sabaeus
Vero [9] = assay: cells; assay type: functional; conditions: Chlorocebus sabaeus
Cytochrome P450 3A4 = Cytochrome P450 3A4 (Homo sapiens, UniProt P08684);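 note: CYP3A4 tested as one member of a cytochrome P450 panel screen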
[10] = HEp-2 cell cytotoxicity, dose response, cytotoxicity control for RSV inhibitor project, HTS (AID 2410); assay type: functional; conditions: human respiratory syncytial virus
HEK293 [11] = assay: NOD1 signaling inhibitors, primary screen, cell-based, luminescence, uHTS (AID 1578); assay type: functional; conditions: Homo sapiens
HEK293 [12] = assay: cells; assay type: functional, cell-based; conditions: Homo sapiens
HEK293 [13] = assay: cells; assay type: functional, cell-based; conditions: Homo sapiens; remark: listed apart in the source
HEK293 [14] = assay: NOD2 signaling inhibitors in MDP-stimulated cells, cell-based, uHTS, luminescence (AID 2001); assay type: functional; conditions: Homo sapiens
Paired box protein Pax-8 = Paired box protein Pax-8 (Homo sapiens, UniProt Q06710); assay: inhibitors of PAX8-driven TPO luciferase reporter, dose response, RMG-I cells, cherry-pick (AID 687027); assay type: functional, cell-based;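 note: luciferase reporter driven by Pax8 target thyroperoxidase promoter measured by SteadyGlo luminescence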
[15] = inhibitors of firefly luciferase expression or activity, dose response, H4 neuroglioma cells, luminescence (AID 1990); assay type: functional, cell-based
[16] = Luminescence Cell-Based Dose Response HTS to Identify Inhibitors of 5'UTR Stem-Loop Driven Prion Protein mRNA Translation in H4 Neuroglioblastoma Cells. [Related pubchem assays: 1827 (Project Summary), 1813 (Primary HTS)]; assay type: functional
[17] = inhibitors of SNCA 5'UTR-driven reporter translation, confirmation, H4 neuroglioma cells, luminescence (AID 1988); assay type: functional, cell-based
HEK293 [18] = assay: inhibitors of LMP1-driven NF-kB reporter, dose response, cell-based, HEK293, luciferase, cherry-pick (AID 588343); assay type: functional; conditions: Homo sapiens
INS1 = assay: beta cell apoptosis inhibitors, cytokine rescue, dose response, luminescence, retest (AID 449756); assay type: functional, cell-based; conditions: Rattus norvegicus;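 note: cell death triggered by IL-1 beta plus TNF-alpha plus IFN-gamma mixture; protective hits raise ATP signal compared with cytokine alone wells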

Beta-galactosidase, sequence (Q8VNN2 whole entry): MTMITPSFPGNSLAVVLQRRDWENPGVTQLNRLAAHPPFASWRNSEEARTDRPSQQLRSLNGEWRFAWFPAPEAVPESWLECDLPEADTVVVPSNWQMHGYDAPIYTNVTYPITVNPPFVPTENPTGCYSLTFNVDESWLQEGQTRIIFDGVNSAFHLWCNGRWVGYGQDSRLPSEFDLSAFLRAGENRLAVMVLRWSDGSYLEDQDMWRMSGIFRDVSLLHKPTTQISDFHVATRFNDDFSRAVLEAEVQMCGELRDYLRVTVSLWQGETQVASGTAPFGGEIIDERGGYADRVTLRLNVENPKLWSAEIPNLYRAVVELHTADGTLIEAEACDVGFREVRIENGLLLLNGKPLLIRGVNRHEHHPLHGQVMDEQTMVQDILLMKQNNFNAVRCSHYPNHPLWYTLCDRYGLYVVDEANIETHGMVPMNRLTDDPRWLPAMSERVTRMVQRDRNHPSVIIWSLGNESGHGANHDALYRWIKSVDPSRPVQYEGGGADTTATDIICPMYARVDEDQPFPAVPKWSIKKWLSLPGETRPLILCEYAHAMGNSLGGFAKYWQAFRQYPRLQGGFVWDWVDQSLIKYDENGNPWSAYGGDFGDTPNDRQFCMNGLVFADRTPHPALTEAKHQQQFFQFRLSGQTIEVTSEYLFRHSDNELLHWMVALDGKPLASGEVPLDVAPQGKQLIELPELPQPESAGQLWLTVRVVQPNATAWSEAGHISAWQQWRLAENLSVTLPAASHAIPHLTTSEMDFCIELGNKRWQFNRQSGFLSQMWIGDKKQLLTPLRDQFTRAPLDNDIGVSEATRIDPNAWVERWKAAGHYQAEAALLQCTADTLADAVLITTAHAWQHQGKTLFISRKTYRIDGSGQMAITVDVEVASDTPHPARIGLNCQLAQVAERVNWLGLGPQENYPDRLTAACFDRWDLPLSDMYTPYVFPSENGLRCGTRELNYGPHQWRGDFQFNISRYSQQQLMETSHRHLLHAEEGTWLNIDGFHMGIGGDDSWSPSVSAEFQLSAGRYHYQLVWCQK
Cytochrome P450 3A4, sequence (P08684 whole entry): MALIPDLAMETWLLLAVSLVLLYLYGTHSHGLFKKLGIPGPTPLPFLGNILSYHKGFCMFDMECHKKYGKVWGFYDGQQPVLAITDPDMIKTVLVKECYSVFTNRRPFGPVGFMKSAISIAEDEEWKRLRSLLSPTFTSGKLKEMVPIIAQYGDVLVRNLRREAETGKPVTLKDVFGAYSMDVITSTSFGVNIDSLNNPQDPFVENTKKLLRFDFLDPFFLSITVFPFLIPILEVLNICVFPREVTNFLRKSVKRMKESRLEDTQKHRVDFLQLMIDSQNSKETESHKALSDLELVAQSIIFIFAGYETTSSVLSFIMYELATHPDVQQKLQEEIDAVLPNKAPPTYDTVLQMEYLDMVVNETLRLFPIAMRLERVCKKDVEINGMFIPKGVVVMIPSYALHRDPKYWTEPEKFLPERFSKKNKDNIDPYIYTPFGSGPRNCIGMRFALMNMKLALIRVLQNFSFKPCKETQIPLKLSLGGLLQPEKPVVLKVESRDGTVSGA
Paired box protein Pax-8, sequence (Q06710 whole entry): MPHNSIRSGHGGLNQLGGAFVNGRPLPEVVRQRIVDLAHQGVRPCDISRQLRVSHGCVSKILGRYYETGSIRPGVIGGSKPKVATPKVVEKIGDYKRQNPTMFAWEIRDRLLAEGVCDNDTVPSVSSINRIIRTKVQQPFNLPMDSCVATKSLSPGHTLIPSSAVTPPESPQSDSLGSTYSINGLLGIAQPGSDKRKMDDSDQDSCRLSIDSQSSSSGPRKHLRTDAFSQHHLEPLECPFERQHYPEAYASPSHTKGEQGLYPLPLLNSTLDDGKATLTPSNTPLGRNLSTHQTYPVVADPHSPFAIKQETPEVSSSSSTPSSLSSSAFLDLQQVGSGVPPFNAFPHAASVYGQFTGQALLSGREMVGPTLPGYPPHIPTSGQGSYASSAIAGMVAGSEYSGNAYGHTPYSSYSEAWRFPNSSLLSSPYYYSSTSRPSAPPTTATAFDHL
G-protein coupled receptor 55, sequence (Q9Y2T6 whole entry): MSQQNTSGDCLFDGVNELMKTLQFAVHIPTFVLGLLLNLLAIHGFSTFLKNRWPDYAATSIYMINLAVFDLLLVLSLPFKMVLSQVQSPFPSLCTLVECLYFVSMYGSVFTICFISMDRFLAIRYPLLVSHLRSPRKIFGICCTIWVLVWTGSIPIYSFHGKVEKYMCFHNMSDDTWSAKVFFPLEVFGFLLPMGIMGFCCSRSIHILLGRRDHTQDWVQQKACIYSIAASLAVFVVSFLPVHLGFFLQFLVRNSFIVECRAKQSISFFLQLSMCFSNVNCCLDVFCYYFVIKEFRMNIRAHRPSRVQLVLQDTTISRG

For CCOc1ccc(NC2=c3c(Br)c(C)ccc3=NC2=O)cc1, the EC50 (Beta-galactosidase) was > 40 µM (inactive) and the IC50 [1] was 7.77 µM (active).

In the case of C[C@H]1CC[C@H]2C(=O)N3[C@H](c4ccccc4Br)[C@@H](C)CC[C@H]3C(=O)N2[C@@H]1c1ccccc1Br, the IC50 [2] is reported as 2.32 µM (active) and the IC50 [3] is reported as 4.2 µM (active).

With CCCCCSc1nnc2c(n1)OC(c1cccn1C)N(C(C)=O)c1ccccc1-2 (configuration not stated) the EC50 [4] was 10.6 µM (active).

With Cc1ccc(OCCOCCNC(C)(C)C)c([N+](=O)[O-])c1 the AC50 (Escherichia coli) was 46.9 µM (active).

For Brc1ccc2[nH]c3c(N4CCc5ccccc5C4)ncnc3c2c1, the IC50 [2] was 1.43 µM (active), the EC50 [5] was 5.55 µM (active) and the IC50 [3] was 1.28 µM (active). For the same molecule, the EC50 (Streptokinase A) was 10.9 µM (active), the EC50 (Streptococcus) was > 150 µM (not active) and the AC50 [6] was 20.4 µM (active).

In the case of CC(C)N(C(=O)CSc1nc2ccccc2n1-c1ccccc1)C(C)C, the IC50 [7] is reported as 3.82 µM (active) and the AC50 [6] is reported as 5.12 µM (active).

For COc1ccc(C(CNC(=O)Cc2ccc(-c3ccccc3)cc2)N(C)C)cc1 (configuration not stated), the EC50 [4] was 0.267 µM (active).

For Cc1cc2cc(CN(CCN(C)C)C(S)=NCc3ccco3)c(O)nc2cc1C, the IC50 (Vero [8]) was 10.4 µM (active) and the CC50 (Vero [9]) was > 25 µM (active).

With Cc1cc(OCCCn2ccnc2)ccc1[N+](=O)[O-] the EC50 [4] was 4.73 µM (active).

With Cc1ccc(C(=O)COC(=O)CNC(=O)C(c2ccccc2)c2ccccc2)cc1[N+](=O)[O-] the EC50 (Beta-galactosidase) was > 40 µM (inactive), the IC50 [1] was 29.5 µM (not active) and the AC50 (Cytochrome P450 3A4) was 15.8 µM (inconclusive).

With O=C1Nc2ccccc2/C1=N/c1ccc(Br)cc1 the EC50 (Beta-galactosidase) was > 40 µM (inactive) and the IC50 [1] was 7.4 µM (active).

For CCCOc1ccccc1/C=C1\SC(N2CCCCC2)=NC1=O, the CC50 [10] was 44.7 µM (active), the IC50 (Vero [8]) was 5.33 µM (active) and the CC50 (Vero [9]) was > 25 µM (active).

For Cc1noc2ncnc(N3CCN(c4cccc(Cl)c4)CC3)c12, the EC50 (HEK293 [11]) was 10.4 µM (active), the IC50 (HEK293 [12]) was 8.79 µM (active) and the IC50 (HEK293 [13]) was > 20 µM (inactive). For the same molecule, the IC50 (HEK293 [14]) was 10.3 µM (inactive).

With CC1CCCN(C(=O)c2nn(C)c3c2CSc2ccccc2-3)C1 (configuration not stated) the AC50 (Escherichia coli) was 48.3 µM (active).

For CC12CCC3C(CCC4(O)CC(O)CCC34C=NO)C1(O)CCC2C1=COC(=O)C1 (configuration not stated), the IC50 (Vero [8]) was > 25 µM (active), the CC50 (Vero [9]) was 0.62 µM (active) and the AC50 (Paired box protein Pax-8) was 1.12 µM (active).

With C=CCN1C(=O)c2ccc(C(=O)N3CCC(C(N)=O)CC3)cc2C1=O the AC50 (Escherichia coli) was 57.7 µM (active).

With Cc1[nH]n(-c2ccc(Br)cc2)c(=O)c1/C=N/NC(=O)c1ccccc1 the EC50 [15] was 7.9 µM (active), the EC50 [5] was 0.593 µM (active) and the EC50 [16] was 26.6 µM (active). For the same molecule, the EC50 [17] was 0.889 µM (active), the EC50 (Streptococcus) was 1.92 µM (active) and the AC50 (HEK293 [18]) was 3.72 µM (active). The AC50 (INS1) was 0.898 µM (active).
